Source: patent US20030004172A1, “Fused pyrimidinone matrix metalloproteinase inhibitors” (priority 2001, published 2003)

Biological target: MMP-13CD (catalytic domain of collagenase-3) (Homo sapiens, UniProt P45452)
Test: Thiopeptolide substrate hydrolysis inhibition assay, MMP-13CD
Format: biochemical
Details: Table I; thiopeptolide substrate, HEPES pH 7.0, 22° C.; read-out: MMP-13CD IC50
Description: Thiopeptolide substrates show virtually no decomposition or hydrolysis at or below neutral pH in the absence of a matrix metalloproteinase enzyme.

| IC50 | SMILES |
| --- | --- |
| > 100 µM | Cn1c(=O)n(Cc2ccccc2)c(=O)c2cc(C(=O)OCC3CCCCO3)sc21 (stereo not drawn) [Example 178, 3-Benzyl-1-methyl-2,4-dioxo-1,2,3,4-tetrahydro-thieno[2,3-d]pyrimidine-6-carboxylic acid tetrahydro-pyran-2-ylmethyl ester] |
| 0.25 µM | Cn1c(=O)n(Cc2ccccc2)c(=O)c2cc(C(=O)OCc3ccc([N+](=O)[O-])cc3)sc21 [Example 179, 3-Benzyl-1-methyl-2,4-dioxo-1,2,3,4-tetrahydro-thieno[2,3-d]pyrimidine-6-carboxylic acid 4-nitro-benzyl ester] |
| 30 µM | CCCCCOC(=O)c1cc2c(=O)n(Cc3ccccc3)c(=O)n(C)c2s1 [Example 180, 3-Benzyl-1-methyl-2,4-dioxo-1,2,3,4-tetrahydro-thieno[2,3-d]pyrimidine-6-carboxylic acid pentyl ester] |
| > 100 µM | Cn1c(=O)n(Cc2ccccc2)c(=O)c2cc(C(=O)OCCCc3ccccc3)sc21 [Example 181, 3-Benzyl-1-methyl-2,4-dioxo-1,2,3,4-tetrahydro-thieno[2,3-d]pyrimidine-6-carboxylic acid 3-phenyl-propyl ester] |
| 8.6 µM | Cn1c(=O)n(Cc2ccccc2)c(=O)c2cc(C(=O)OCc3cccc(Oc4ccccc4)c3)sc21 [Example 182, 3-Benzyl-1-methyl-2,4-dioxo-1,2,3,4-tetrahydro-thieno[2,3-d]pyrimidine-6-carboxylic acid 3-phenoxy-benzyl ester] |
| 30 µM | COc1cc(COC(=O)c2cc3c(=O)n(Cc4ccccc4)c(=O)n(C)c3s2)cc(OC)c1 [Example 183, 3-Benzyl-1-methyl-2,4-dioxo-1,2,3,4-tetrahydro-thieno[2,3-d]pyrimidine-6-carboxylic acid 3,5-dimethoxy-benzyl ester] |
| > 100 µM | CC(C)CCOC(=O)c1cc2c(=O)n(Cc3ccccc3)c(=O)n(C)c2s1 [Example 184, 3-Benzyl-1-methyl-2,4-dioxo-1,2,3,4-tetrahydro-thieno[2,2-d]pyrimidine-6-caboxylic acid 3-methyl-butyl ester] |
| 0.014 µM | Cn1c(=O)n(Cc2ccccc2)c(=O)c2cc(C(=O)OCc3ccc(Cl)cc3)sc21 [Example 185, 3-Benzyl-1-methyl-2,4-dioxo-1,2,3,4-tetrahydro-thieno[2,3-d]pyrimidine-6-carboxylic acid 4-chloro-benzyl ester] |
| 4.5 µM | CCN1CCCC(OC(=O)c2cc3c(=O)n(Cc4ccccc4)c(=O)n(C)c3s2)C1 (stereo not drawn) [Example 186, 3-Benzyl-1-methyl-2,4-dioxo-1.2.3.4-tetrahydro-thieno[2,3-d]pyrimidine-6-carboxylic acid 1-ethyl-piperidin-3-yl ester] |
| > 100 µM | Cn1c(=O)n(Cc2ccccc2)c(=O)c2cc(C(=O)OCc3ccc(OCc4ccccc4)cc3)sc21 [Example 187, 3-Benzyl-1-methyl-2,4-dioxo-1,2,3,4-tetrahydro-thieno[2,3-d]pyrimidine-6-carboxylic acid 4-benzyloxy-benzyl ester] |
| 19 µM | CC(C)COC(=O)c1cc2c(=O)n(Cc3ccccc3)c(=O)n(C)c2s1 [Example 188, 3-Benzyl-1-methyl-2,4-dioxo-1,2,3,4-tetrahydro-thieno[2,3-d]pyrimidine-6-carboxylic acid isobutyl ester] |
| 4.9 µM | COc1ccc(CCCOC(=O)c2cc3c(=O)n(Cc4ccccc4)c(=O)n(C)c3s2)cc1 [Example 189, 3-Benzyl-1-methyl-2,4-dioxo-1,2,3,4-tetrahydro-thieno[2,3-d]pyrimidine-6-carboxylic acid 3-(4-methoxy-phenyl)-propyl ester] |
| > 100 µM | Cn1c(=O)n(Cc2ccccc2)c(=O)c2cc(C(=O)OCc3c(F)cccc3Cl)sc21 [Example 190, 3-Benzyl-1-methyl-2,4-dioxo-1,2,3,4-tetrahydro-thieno[2,3-d]pyrimidine-6-carboxylic acid 2-chloro-6-fluoro-benzyl ester] |
| 2.3 µM | Cn1c(=O)n(Cc2ccccc2)c(=O)c2cc(C(=O)OC3CCOC3)sc21 (stereo not drawn) [Example 191, 3-Benzyl-1-methyl-2,4-dioxo-1,2,3,4-tetrahydro-thieno[2,3-d]pyrimidine-6-carboxylic acid tetrahydro-furan-3-yl ester] |

The remaining lines, values behind:

| SMILES | IC50 |
| --- | --- |
| Cc1ccc(CCOC(=O)c2cc3c(=O)n(Cc4ccccc4)c(=O)n(C)c3s2)cc1 [Example 155, 3-Benzyl-1-methyl-2,4-dioxo-1,2,3,4-tetrahydro-thieno[2,3-d]pyrimidine-6-carboxylic acid 2-p-tolyl-ethyl ester] | 62 µM |
| Cn1c(=O)n(Cc2ccccc2)c(=O)c2cc(C(=O)OCc3ccc(C(F)(F)F)cc3)sc21 [Example 156, 3-Benzyl-1-methyl-2,4-dioxo-1,2,3,4-tetrahydro-thieno[2,3-d]pyrimidine-6-carboxylic acid 4-trifluoromethyl-benzyl ester] | 0.18 µM |
| Cn1c(=O)n(Cc2ccccc2)c(=O)c2cc(C(=O)OCC3CCC3)sc21 [Example 157, 3-Benzyl-1-methyl-2,4-dioxo-1,2,3,4-tetrahydro-thieno[2,3-d]pyrimidine-6-carboxylic acid cyclobutylmethyl ester] | > 100 µM |
| Cn1c(=O)n(Cc2ccccc2)c(=O)c2cc(C(=O)OCc3c(F)cccc3F)sc21 [Example 158, 3-Benzyl-1-methyl-2,4-dioxo-1,2,3,4-tetrahydro-thieno[2,3-d]pyrimidine-6-carboxylic acid 2,6-difluoro-benzyl ester] | 16 µM |
| Cn1c(=O)n(Cc2ccccc2)c(=O)c2cc(C(=O)OCCc3ccccc3O)sc21 [Example 159, 3-Benzyl-1-methyl-2,4-dioxo-1,2,3,4-tetrahydro-thieno[2,3-d]pyrimidine-6-carboxylic acid 2-(2-hydroxy-phenyl)-ethyl ester] | 30 µM |
| CN1CCC(OC(=O)c2cc3c(=O)n(Cc4ccccc4)c(=O)n(C)c3s2)CC1 [Example 161, 3-Benzyl-1-methyl-2,4-dioxo-1,2,3,4-tetrahydro-thieno[2,3-d]pyrimidine-6-carboxylic acid 1-methyl-piperidin-4-yl ester] | 11 µM |
| Cn1c(=O)n(Cc2ccccc2)c(=O)c2cc(C(=O)OCc3cccnc3)sc21 [Example 163, 3-Benzyl-1-methyl-2,4-dioxo-1,2,3,4-tetrahydro-thieno[2,3-d]pyrimidine-6-carboxylic acid pyridin-3-ylmethyl ester] | 0.016 µM |
| Cn1c(=O)n(Cc2ccccc2)c(=O)c2cc(C(=O)OCCCc3cccnc3)sc21 [Example 164, 3-Benzyl-1-methyl-2,4-dioxo-1,2,3,4-tetrahydro-thieno[2,3-d]pyrimidine-6-carboxylic acid 3-pyridin-3-yl-propyl ester] | 69 µM |
| CC(CN(C)C)OC(=O)c1cc2c(=O)n(Cc3ccccc3)c(=O)n(C)c2s1 (stereo not drawn) [Example 165, 3-Benzyl-1-methyl-2,4-dioxo-1,2,3,4-tetrahydro-thieno[2,3-d]pyrimidine-6-carboxylic acid 2-dimethylamino-1-methyl-ethyl ester] | 20 µM |
| COc1ccc(COC(=O)c2cc3c(=O)n(Cc4ccccc4)c(=O)n(C)c3s2)cc1 [Example 166, 3-Benzyl-1-methyl-2,4-dioxo-1,2,3,4-tetrahydro-thieno[2,3-d]pyrimidine-6-carboxylic acid 4-methoxy-benzyl ester] | 0.92 µM |
| Cn1c(=O)n(Cc2ccccc2)c(=O)c2cc(C(=O)OC3CCOCC3)sc21 [Example 167, 3-Benzyl-1-methyl-2,4-dioxo-1,2,3,4-tetrahydro-thieno[2,3-d]pyrimidine-6-carboxylic acid tetrahydro-pyran-4-yl ester] | 26 µM |
| Cn1c(=O)n(Cc2ccccc2)c(=O)c2cc(C(=O)OCc3ccccc3C(F)(F)F)sc21 [Example 169, 3-Benzyl-1-methyl-2,4-dioxo-1,2,3,4-tetrahydro-thieno[2,3-d]pyrimidine-6-carboxylic acid 2-trifluoromethyl-benzyl ester] | 30 µM |
| Cn1c(=O)n(Cc2ccccc2)c(=O)c2cc(C(=O)OCCOCc3ccccc3)sc21 [Example 170, 3-Benzyl-1-methyl-2,4-dioxo-1,2,3,4-tetrahydro-thieno[2,3-d]pyrimidine-6-carboxylic acid 2-benzyloxy-ethyl ester] | 0.72 µM |
| Cn1c(=O)n(Cc2ccccc2)c(=O)c2cc(C(=O)OCC(Cl)(Cl)Cl)sc21 [Example 171, 3-Benzyl-1-methyl-2,4-dioxo-1,2,3,4-tetrahydro-thieno[2,3-d]pyrimidine-6-carboxylic acid 2,2,2-trichloro-ethyl ester] | 14 µM |
| Cn1c(=O)n(Cc2ccccc2)c(=O)c2cc(C(=O)OCCc3ccccc3)sc21 [Example 172, 3-Benzyl-1-methyl-2,4-dioxo-1,2,3,4-tetrahydro-thieno[2,3-d]pyrimidine-6-carboxylic acid phenethyl ester] | 32 µM |
| CCC1(COC(=O)c2cc3c(=O)n(Cc4ccccc4)c(=O)n(C)c3s2)COC1 [Example 173, 3-Benzyl-1-methyl-2,4-dioxo-1,2,3,4-tetrahydro-thieno[2,3-d]pyrimidine-6-carboxylic acid 3-ethyl-oxetan-3-ylmethyl ester] | > 100 µM |
| Cn1c(=O)n(Cc2ccccc2)c(=O)c2cc(C(=O)OCCN3CCOCC3)sc21 [Example 174, 3-Benzyl-1-methyl-2,4-dioxo-1,2,3,4-tetrahydro-thieno[2,3-d]pyrimidine-6-carboxylic acid 2-morpholin-4-yl-ethyl ester] | > 100 µM |
| Cn1c(=O)n(Cc2ccccc2)c(=O)c2cc(C(=O)OCCN3CCCC3)sc21 [Example 175, 3-Benzyl-1-methyl-2,4-dioxo-1,2,3,4-tetrahydro-thieno[2,3-d]pyrimidine-6-carboxylic acid 2-pyrrolidin-1-yl-ethyl ester] | > 100 µM |
| CCOCCOCCOC(=O)c1cc2c(=O)n(Cc3ccccc3)c(=O)n(C)c2s1 [Example 177, 3-Benzyl-1-methyl-2,4-dioxo-1,2,3,4-tetrahydro-thieno[2,3-d]pyrimidine-6-carboxylic acid 2-(2-ethoxy-ethoxy)-ethyl ester] | > 100 µM |
